This series can be described thus: Solubility test of nucleoside with protected 3′-hydroxyl group. It counts as physicochemical. The method, then: The solubility (=solute/(solvent+solute)×100) (mass %) at 20° C., shown in the following Table 2, of the compound representing the present invention, thymidine wherein the 5′-hydroxyl group is protected by dimethoxytrityl group, and the 3′-hydroxyl group is protected by the branched chain-containing aromatic protecting group (Example 2), and thymidine wherein the 5′-hydroxyl group is protected by dimethoxytrityl group, and the 3′-hydroxyl group is protected by the corresponding group containing the straight chain structure (Comparative Example 2) as a comparison target thereof was measured.
[Solubility Measurement Method]
• 1) A solute (100 parts by mass) was added to a solvent (100 parts by mass) to saturation at 20° C. • 2) When the solute remained by visual observation, the supernatant was quantitatively analyzed under the following HPLC conditions, and the concentration was determined and taken as the solubility (=solute/(solvent+solute)×100)(mass %). • 3) When the solute was absent by visual observation, the solubility was >50 mass %. • [HPLC Analysis Conditions] • use instrument: Hitachi high performance liquid chromatography LaChrom Elite L-2000 series • column: YMC-PACK 5 μm 150×4.6 mm • column temperature: 40° C. • eluent: THF/CH3CN/H2O • flow rate: 1.0 ml/min

Where [1] appears, read: heptane/toluene/acetonitrile = 1/1/1, 20° C.

In the case of `CCCCCCCCCCCCCCCCCCOc1cc(CNC(=O)CCC(=O)OC2CC(n3cc(C)c(=O)[nH]c3=O)OC2COC(c2ccccc2)(c2ccc(OC)cc2)c2ccc(OC)cc2)cc(OCCCCCCCCCCCCCCCCCC)c1OCCCCCCCCCCCCCCCCCC` (stereo not drawn) [Comparative Example 2, 5′-O-(4,4′-dimethoxytrityl)-2′-deoxythymidin-3′-yl-N-(3,4,5-tris(octadecyloxy)benzyl)succinamate], the “solubility (=solute/(solvent+solute)×100)” value by setting is: (heptane, 20° C.) 0% by mass; (heptane/toluene = 1/1, 20° C.) 22.3% by mass; under setting [1], 13.7% by mass.
`COc1ccc(C(OCC2OC(n3cc(C)c(=O)[nH]c3=O)C[C@H]2OC(=O)CCC(=O)NCc2cc(OCCC(C)CCCC(C)CCCC(C)CCCC(C)C)c(OCCC(C)CCCC(C)CCCC(C)CCCC(C)C)c(OCCC(C)CCCC(C)CCCC(C)CCCC(C)C)c2)(c2ccccc2)c2ccc(OC)cc2)cc1` (stereo partly drawn) [Example 2, 5′-O-(4,4′-dimethoxytrityl)-2′-deoxythymidin-3′-yl-N-[3,4,5-tris(3,7,11,15-tetramethyl-1-hexadecanyloxy)benzyl]succinamate]: the “solubility (=solute/(solvent+solute)×100)” value reads like this: (heptane, 20° C.) over 50% by mass; (heptane/toluene = 1/1, 20° C.) over 50% by mass; under setting [1], over 50% by mass.

The values are drawn from patent US9371353B2, “Oligonucleotide with protected base” (Ajinomoto Co., Inc., priority 2012, dated 2016).
